From patent publication US4789670A, “Method and compositions for suppression of atherogenesis utilizing cholesterol hydroperoxides” (priority 1987, dated 1988)

Key:
Bovine brain calmodulin = Bovine brain calmodulin (Bos taurus, UniProt P62157); assay: Calmodulin assayed by activation of calmodulin-dependent cyclic nucleotide phosphodiesterase; format: biochemical; settings: 122 μM
Text: Bovine brain calmodulin was purified to homogeneity according to the method described by Sharma and Wang (1979), cited above, with the inclusion of phenyl-Sepharose affinity chromatography as described by Dedman and Kaetzel (1983) Methods Enzymol., 102:1-8. Calmodulin-deficient, calmodulin-dependent cyclic nucleotide phosphodiesterase from bovine brain was partially purified by the method described by Sharma et al. (1983) Methods Enzymol., 102:210-219, with the omission of the calmodulin-Sepharose affinity chromatography. Calmodulin was assayed by the activation of the bovine brain calmodulin-dependent cyclic, nucleotide phosphodiesterase as described by Leung et al. (1982) J. Biol. Chem., 259:2742-2747. Briefly, the phosphodiesterase reaction was coupled to the 5,'-nucleotidase reaction. The amount of phosphate released was measured by the malachite green method of Carter and Karl (1982) J. Biochem. Biophys. Methods, 7:7-13. One unit of calmodulin is defined as that amount giving 50% of the maximal activation of the phosphodiesterase.

[1] = tested on: rabbits fed an atherogenic diet; settings: cited from earlier work
[2] = tested on: New Zealand white rabbits; assay: Rabbit feeding experiments: aortas stained with Sudan IV for atherosclerotic lesions; format: in vivo
Procedure: (§1) For the first feeding experiment, eighteen young adult New Zealand white rabbits (2.7+/-0,3 kg) were divided into […]. The first group (3 animals) was killed immediately and tissue samples obtained for comparison with the experimental animals. The controls (3 rabbits) were fed 160 g/day Purina Pelleted Rabbit Chow (Ralston Purina Co., St. Louis, MO.); the other three groups (4 rabbits each) received the same diet to which was added 1.6 g recrystallized cholesterol, or 50 mg of the cholesterol hydroperoxide-enriched material, or both 1.6 g recrystallized cholesterol and 50 mg of cholesterol hydroperoxides. The sterols were added to the pelleted diet in ethyl ether and the ether was allowed to evaporate under a stream of nitrogen. The animals were fed this diet for 61 days, during which time one animal on the cholesterol diet died of unknown causes. The weight gained by the animals during the experiment, as percent of initial weight, was: controls, 38%; cholesterol, 33%; hydroperoxides, 34%; and cholesterol plus hydroperoxides, 18%. At the end of the feeding period the animals were killed and blood and tissue samples obtained for further investigation.
A second feeding experiment was conducted in the same way as the first with the following changes. Twenty-six rabbits (2.8 +/-0.05 kg) were obtained; two were killed before the feeding experiment began and tissue samples obtained as before. The remaining animals were divided into 6 groups of 4. Four groups received the same diets as in the first experiment. The other two groups received 160/g day Purina Pelleted Rabbit Chow to which was added 50 mg/day of the material produced by reduction of the hydroperoxide-enriched material with NaI; or 1.6 g/day recrystallized cholesterol plus 50 mg/day of the reduced material. […]
The aortas were sectioned longitudinally and stained with Sudan IV (Holman et al., 1958Lat. Invest., 7:42-47). […] J. Biochem. and Physiol., 37:911-917 and free and esterified cholesterol concentrations in plasma, lipoproteins, and tissue were determined by the method of Sale (1984) Anal. Biochem., 142:347-350.

[3] = Rabbit feeding experiments: blood plasma cholesterol and cholesterol esters; format: in vivo; settings: +/- S.D.
Procedure: as §1
A second feeding experiment was conducted in the same way as the first with the following changes. Twenty-six rabbits (2.8 +/-0.05 kg) were obtained; two were killed before the feeding experiment began and tissue samples obtained as before. The remaining animals were divided into 6 groups of 4. Four groups received the same diets as in the first experiment. The other two groups received 160/g day Purina Pelleted Rabbit Chow to which was added 50 mg/day of the material produced by reduction of the hydroperoxide-enriched material with NaI; or 1.6 g/day recrystallized cholesterol plus 50 mg/day of the reduced material. The animals received all six diets for 56 days, during which time one control animal and one receiving the hydroperoxide preparation died during removal of blood samples. The weight gain, as percent of initial weight, was: controls, 45%; cholesterol, 31%; hydroperoxides, 29%; cholesterol plus hydroperoxides, 31%; reduced hydroperoxides 35%, and cholesterol plus reduced hydroperoxides, 30%.
(§2) The aortas were sectioned longitudinally and stained with Sudan IV (Holman et al., 1958Lat. Invest., 7:42-47). Serum lipoproteins were separated as described by Havel et al. (1955) J. Clin. Invest., 34:1345-1353. Lipids were extracted by the method of Bligh and Dyer (1959) Can. J. Biochem. and Physiol., 37:911-917 and free and esterified cholesterol concentrations in plasma, lipoproteins, and tissue were determined by the method of Sale (1984) Anal. Biochem., 142:347-350.

[4] = Rabbit feeding experiment: cholesterol and cholesterol esters in liver and heart; format: in vivo; settings: first feeding experiment, +/- S.D.
Procedure: as §1, §2

Structure (SMILES): CC(C)CCC[C@@H](C)[C@H]1CC[C@H]2[C@@H]3C(=O)C=C4C[C@@H](O)CC[C@]4(C)[C@H]3CC[C@]12C [5-cholesten-3β-ol-7-one]
- effect in the phosphodiesterase assay (Bovine brain calmodulin): without effect

Structure (SMILES): CN(C)CCCN1c2ccccc2Sc2ccc(Cl)cc21 [chlorpromazine]
- development of atherosclerotic lesions [1]: reduced the development of such lesions
- effect on blood cholesterol [1]: without lowering of blood cholesterol

Structure (SMILES): CC(C)CCC[C@@H](C)[C@H]1CC[C@H]2[C@@H]3CCC4=CC(=O)CC[C@]4(C)[C@H]3CC[C@]12C [4-cholesten-3-one]
- effect in the phosphodiesterase assay (Bovine brain calmodulin): without effect

Structure (SMILES): CC(C)CCC[C@@H](C)[C@H]1CC[C@H]2[C@@H]3C[C@@H]4O[C@@]45C[C@@H](O)CC[C@]5(C)[C@H]3CC[C@]12C [Cholesterol-5α,6α-epoxide, cholesterol-5α,6α-epoxide]
- effect in the phosphodiesterase assay (Bovine brain calmodulin): without effect

Structure (SMILES): CC(C)CCC[C@@H](C)[C@H]1CC[C@H]2[C@@H]3CC=C4C[C@@H](O)CC[C@]4(C)[C@H]3CC[C@]12C [cholesterol]
- atherosclerotic lesions in aorta (Sudan IV) ([2]; first feeding experiment, 61 days, added to chow: 1.6 g/day cholesterol and/or 50 mg/day hydroperoxide material): heavily infiltrated with fatty material
- atherosclerotic lesions in aorta (Sudan IV) ([2]; first feeding experiment, 61 days, added to chow: 1.6 g/day cholesterol and/or 50 mg/day hydroperoxide material, listed as Cholesterol): extensive atheroma formation
- atherosclerotic lesions in aorta (Sudan IV) ([2]; second feeding experiment, 56 days, added to chow: 1.6 g/day cholesterol and/or 50 mg/day test material): less than in the first experiment
- Final blood plasma Cholesterol ([3]; first feeding experiment): 446 ± 163 mg/dL
- Final blood plasma Cholesterol Esters ([3]; first feeding experiment): 1507 ± 361 mg/dL
- Final blood plasma Cholesterol ([3]; second feeding experiment): 828 ± 459 mg/dL
- Final blood plasma Cholesterol Esters ([3]; second feeding experiment): 1520 ± 820 mg/dL
- cholesterol and esters, HEART [4]: 158 +/- 74 mg/100 g wet tissue
- cholesterol and esters, LIVER [4]: 4960 +/- 1416 mg/100 g wet tissue
- cholesterol, HEART [4]: 160 +/- 24 mg/100 g wet tissue
- cholesterol, LIVER [4]: 1217 +/- 615 mg/100 g wet tissue
